Laboratory results from US20250332178A1, “METHODS OF TREATING MYCOBACTERIAL INFECTIONS USING TETRACYCLINE COMPOUNDS” (priority 2018, published 2025).
Read-outs that look alike come from different tables or passages of the source.

Tests used:
M. chimaera = assay: MIC (CLSI broth dilution), slow-growing NTM isolates; assay type: cell-based; details: read-out: MIC
M. intracellulare = assay: as above; assay type: cell-based; details: Mycobacterium intracellulare, read-out: MIC
[1] = tested on: rapid-growing mycobacteria (RGM) isolates; assay: MIC (CLSI broth dilution), all RGM isolates; assay type: cell-based, nontuberculous mycobacteria; details: all 50 RGM isolates
M. fortuitum group = assay: MIC (CLSI broth dilution), RGM isolates; assay type: cell-based; details: Mycolicibacterium fortuitum, read-out: MIC
[2] = tested on: slow-growing NTM isolates; assay: MIC (CLSI broth dilution), all slow-growing NTM isolates; assay type: cell-based, nontuberculous mycobacteria; details: all slow-growing NTM isolates
M. abscessus complex = assay: MIC (CLSI broth dilution), RGM isolates; assay type: cell-based; details: Mycobacteroides abscessus, read-out: MIC
M. arupense = assay: MIC (CLSI broth dilution), slow-growing NTM isolates; assay type: cell-based; details: isolate 11, Other; read-out: MIC
M. avium = assay: as above; assay type: cell-based; details: Mycobacterium avium, read-out: MIC
M. mucogenium group = assay: MIC (CLSI broth dilution), RGM isolates; assay type: cell-based; details: read-out: MIC
M. smegmatis group = assay: MIC (CLSI broth dilution), RGM isolates; assay type: cell-based; details: Mycolicibacterium smegmatis, read-out: MIC
M. simiae = assay: MIC (CLSI broth dilution), slow-growing NTM isolates; assay type: cell-based; details: read-out: MIC
M. chelonae = assay: MIC (CLSI broth dilution), RGM isolates; assay type: cell-based; details: Mycobacteroides chelonae, read-out: MIC
M. immunogenum group = assay: MIC (CLSI broth dilution), RGM isolates; assay type: cell-based; details: M. immunogenum, read-out: MIC

COc1c(N2C[C@@H]3CCCN[C@@H]3C2)c(F)cc2c(=O)c(C(=O)O)cn(C3CC3)c12 [MXF, moxifloxacin]
16 µg/mL: MIC90 ([1]; read-out: MIC90) | MIC (M. abscessus complex; isolate 3, M. abscessus complex, erm gene type MAB30) | MIC (M. abscessus complex; isolate 4, M. abscessus complex, erm gene type massiliense) | MIC (M. abscessus complex; isolate 6, M. abscessus complex, erm gene type Type 1 abscessus) | MIC (M. abscessus complex; isolate 8, M. abscessus complex, erm gene type Type 1 abscessus) | MIC (M. immunogenum group; isolate 37, M. immunogenum group) | MIC (M. immunogenum group; isolate 38, M. immunogenum group)
≤ 0.06 µg/mL: MIC (M. fortuitum group; isolate 23, M. fortuitum group, M. fortuitum) | MIC (M. fortuitum group; isolate 24, M. fortuitum group, M. fortuitum) | MIC (M. fortuitum group; isolate 25, M. fortuitum group, M. fortuitum) | MIC (M. fortuitum group; isolate 26, M. fortuitum group, M. porcinum) | MIC (M. fortuitum group; isolate 30, M. fortuitum group, M. porcinum/M. boenickei) | MIC (M. smegmatis group; isolate 49, M. smegmatis group, M. goodii)
0.25 µg/mL: MIC (M. fortuitum group; isolate 28, M. fortuitum group, M. porcinum/M. boenickei) | MIC (M. avium; isolate 2, MAC) | MIC (M. mucogenium group; isolate 40, M. mucogenicum group, M. mucogenicum) | MIC (M. mucogenium group; isolate 41, M. mucogenicum group, M. mucogenicum) | MIC (M. mucogenium group; isolate 43, M. mucogenicum group, M. phocaicum) | MIC (M. smegmatis group; isolate 50, M. smegmatis group, M. wolinskyi)
> 16 µg/mL: MIC (M. arupense) | MIC (M. chelonae; isolate 21, M. chelonae)
4 µg/mL: MIC (M. chimaera; isolate 4, MAC) | MIC (M. abscessus complex; isolate 5, M. abscessus complex, erm gene type massiliense/subsp. abs hybrid) | MIC (M. abscessus complex; isolate 10, M. abscessus complex, erm gene type Type 1 abscessus) | MIC (M. abscessus complex; isolate 12, M. abscessus complex, erm gene type Type 6 abscessus) | MIC (M. abscessus complex; isolate 16, M. abscessus complex, erm gene type Type 7 abscessus) | MIC (M. abscessus complex; isolate 17, M. abscessus complex, erm gene type Type 8 abscessus) | MIC (M. avium; isolate 3, MAC) | MIC (M. simiae; isolate 13, Other) | MIC (M. chelonae; isolate 18, M. chelonae) | MIC (M. immunogenum group; isolate 36, M. immunogenum group)
0.12 µg/mL: MIC (M. fortuitum group; isolate 27, M. fortuitum group, M. porcinum) | MIC (M. fortuitum group; isolate 29, M. fortuitum group, M. porcinum/M. boenickei) | MIC (M. fortuitum group; isolate 31, M. fortuitum group, M. senegalense) | MIC (M. fortuitum group; isolate 32, M. fortuitum group, M. senegalense) | MIC (M. fortuitum group; isolate 33, M. fortuitum group, M. senegalense) | MIC (M. fortuitum group; isolate 34, M. fortuitum group, M. senegalense) | MIC (M. mucogenium group; isolate 39, M. mucogenicum group, M. mucogenicum)
1 µg/mL: MIC (M. intracellulare; isolate 7, MAC) | MIC (M. mucogenium group; isolate 45, M. mucogenicum group, M. phocaicum) | MIC (M. mucogenium group; isolate 46, M. mucogenicum group, M. phocaicum) | MIC (M. mucogenium group; isolate 48, M. mucogenicum group, M. phocaicum)
2 µg/mL: MIC (M. chimaera; isolate 5, MAC) | MIC (M. intracellulare; isolate 6, MAC) | MIC (M. intracellulare; isolate 8, MAC) | MIC (M. intracellulare; isolate 9, MAC) | MIC50 ([1]; read-out: MIC50) | MIC50 ([2]; read-out: MIC50) | MIC (M. avium; isolate 1, MAC) | MIC (M. simiae; isolate 14, Other) | MIC (M. chelonae; isolate 20, M. chelonae) | MIC (M. chelonae; isolate 22, M. chelonae)
8 µg/mL: MIC90 ([2]; read-out: MIC90) | MIC (M. abscessus complex; isolate 1, M. abscessus complex, erm gene type MAB30) | MIC (M. abscessus complex; isolate 2, M. abscessus complex, erm gene type MAB30) | MIC (M. abscessus complex; isolate 7, M. abscessus complex, erm gene type Type 1 abscessus) | MIC (M. abscessus complex; isolate 9, M. abscessus complex, erm gene type Type 1 abscessus) | MIC (M. abscessus complex; isolate 11, M. abscessus complex, erm gene type Type 6 abscessus) | MIC (M. abscessus complex; isolate 13, M. abscessus complex, erm gene type Type 6 abscessus) | MIC (M. abscessus complex; isolate 14, M. abscessus complex, erm gene type Type 6 abscessus) | MIC (M. abscessus complex; isolate 15, M. abscessus complex, erm gene type Type 7 abscessus) | MIC (M. simiae; isolate 15, Other) | MIC (M. chelonae; isolate 19, M. chelonae) | MIC (M. immunogenum group; isolate 35, M. immunogenum group)
0.5 µg/mL: MIC (M. intracellulare; isolate 10, MAC) | MIC (M. mucogenium group; isolate 42, M. mucogenicum group, M. mucogenicum) | MIC (M. mucogenium group; isolate 44, M. mucogenicum group, M. phocaicum) | MIC (M. mucogenium group; isolate 47, M. mucogenicum group, M. phocaicum)
